# Experimental data as given in publication PMC11697113, “The Hsc70 system maintains the synaptic SNARE protein SNAP-25 in an assembly-competent state and delays its aggregation [drawing 1]” (The Journal of Biological Chemistry, 2024).
# Biological target: T1, Hsc70 (Homo sapiens, UniProt P11142)
# T1 construct: 6X His-tag (TEV-cleavable) (cleaved yes); made in house; host or cells: E. coli Rosetta (DE3)
# Test: Competition binding vs FITC-p5 by fluorescence anisotropy
# Settings: Hsc70 5 μM, FITC-p5 50 nM, competitor 0 to 200 μM, phosphate buffer pH 7.4, overnight 4 °C, three independent experiments; for relative affinity for Hsc70: fluorescence anisotropy, comparator LOOPP
# Protocol: Figure 3 Hsc70 forms complexes with SNAP-25.A, native PAGE of SNAP-25 (10 μM) in the presence and absence of Hsc70 (2 μM). The difference in signal intensity of His-SNAP25 probed with antibody is likely due to altered epitope exposure upon formation of the SNAP-25-Hsc70 complex. B, binding of SNAP-25 (black), SNAP-25 SNN (SNNFR, orange), and SNC (SNCFR, green)) fragments to Hsc70 by competition followed by fluorescence anisotropy. Increasing concentrations of the competitors were added to a complex of Hsc70 (5 μM) and FITC-p5 peptide (50 nM). Error bars represent SDs from three independent experiments.
# To pin down the regions in SNAP-25 where Hsc70 binds we expressed the individual SNN and SNC fragments of SNAP-25 and tested their ability to compete for Hsc70 binding to an FITC-labeled p5 peptide (ALLLSAPRR).
# Figure 5 SNN and SNC peptides interact with the canonical substrate-binding site of Hsc70.A, ATPase activity of Hsc70 (2 μM) in the absence (gray) and presence of 200 μM SNNP (orange) and SNCP (green) peptides. Error bars represent the SDs from three independent experiments. B, binding of SNAP-25 (black), SNNP (orange), LoopP (blue), and SNCP (green) peptides to Hsc70 followed by competition for FITC-p5 peptide using fluorescence anisotropy. Increasing concentrations of the competitors were added to a complex of Hsc70 (5 μM) and FITC-p5 peptide (50 nM). Error bars represent SDs from three independent experiments. C, structure of the canonical substrate-binding site of human HspA1 (PDB 4po2) illustrating the location of Hsc70 residues Ile 403 and Ile 440 in red and green spheres, respectively (N.B., Hsc70 and HspA1 share […] sequence identity). The SBD is shown in gray, bound substrate in cyan sticks, and the side chain of the residue occupying the 0th position in the chaperone (“anchor residue”) in orange ball and sticks. For better visualization of the substrate-binding site, residues 512 to 613, 405 to 408, and 431 were removed in this illustration of the structure. D, the Ile region of the ^1H-^13 C HMQC spectra of Ile-^13CH3-labeled Hsc70 (40 μM) in the absence (black) and in the presence of unlabeled SNNP (orange) and SNCP (green) peptides (200 μM).
# To further characterize the binding of the SNAP-25 peptides to Hsc70 we used competition assays as above. Peptides SNNP, LOOPP, and SNCP were titrated against the protein-peptide complex of Hsc70 and FITC-p5 and fluorescence anisotropy was monitored to assess how well the SNAP-25 peptides displaced the model peptide.
# Direct binding between the p5 peptide (QSRLLLSAPRRAA) and Hsc70 was carried out as described previously ([52]). […] Fluorescence anisotropy was measured in a BioTek plate reader (BioTek) with excitation at 485 nm and emission at 516 nm.
# The measured anisotropy values were converted to fraction bound (fb) using the equation: fb=(r−r0)/(rb−r0) where r is the anisotropy value at any point, r0 is the anisotropy value of FITC-p5 in the absence of Hsc70, and rb is the anisotropy value of FITC-p5 when fully bound to Hsc70. […]
# For competition assays, the concentrations of Hsc70 and FITC-P5 were kept constant at 5 μM and 50 nM, respectively, and the competitor substrate was titrated from 0 to 200 μM in phosphate buffer. […] Fluorescent anisotropy was measured as described above. […]
# T1 sequence (P11142 whole entry): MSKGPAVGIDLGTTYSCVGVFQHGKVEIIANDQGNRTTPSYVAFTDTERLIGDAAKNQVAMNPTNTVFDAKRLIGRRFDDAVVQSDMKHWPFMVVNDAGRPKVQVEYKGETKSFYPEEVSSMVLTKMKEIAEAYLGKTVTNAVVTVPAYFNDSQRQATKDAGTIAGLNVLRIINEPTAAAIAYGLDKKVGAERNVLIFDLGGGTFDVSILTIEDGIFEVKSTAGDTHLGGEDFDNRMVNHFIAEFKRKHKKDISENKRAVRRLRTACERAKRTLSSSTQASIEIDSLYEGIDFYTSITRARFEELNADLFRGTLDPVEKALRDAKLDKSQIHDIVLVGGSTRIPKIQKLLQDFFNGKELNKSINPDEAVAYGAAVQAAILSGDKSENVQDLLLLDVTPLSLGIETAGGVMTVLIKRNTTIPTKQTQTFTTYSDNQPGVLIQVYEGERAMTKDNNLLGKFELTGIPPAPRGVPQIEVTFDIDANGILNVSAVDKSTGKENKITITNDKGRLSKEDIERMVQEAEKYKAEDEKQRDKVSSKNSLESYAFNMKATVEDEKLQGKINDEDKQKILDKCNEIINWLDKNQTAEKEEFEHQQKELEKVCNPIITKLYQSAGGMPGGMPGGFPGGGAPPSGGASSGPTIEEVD
Substance,relative affinity for Hsc70,competition with p5 peptide for binding to Hsc70 (fluorescence anisotropy 485/516 nm)
"EREQMAISGGFIRR [SNCP, peptide … from the LOOP-SNC domain of SNAP-25]",significantly higher affinity than LOOPP,–
"RRMLQLVEESK [SNNP, peptide … from the SNN domain of SNAP-25]",significantly higher affinity than LOOPP,–
synaptosomal-associated 25 kDa protein [SNAP-25],–,competed with p5 peptide for binding to Hsc70
